Drawing on patent publication US12371434B2, “MLL1 inhibitors and anti-cancer agents” (NOVARTIS AG, priority 2020, dated 2025), this text covers IC50 for 14 compounds.

pIC50: −log10 of the molar value. Some results are limits rather than exact numbers.

In test [1] the target is wild type MLL1 five-member complex (MLL1-5C) (Homo sapiens, UniProt Q03164). Description: MLL1 Flashplate assay. It is filed as biochemical. The conditions noted are these: 2.5 nM MLL1-5C, 0.5 μM 3H-SAM, 1 μM H3K4me0; read-out: MLL1 flash plate. As for the experimental part: MLL1 Flashplate Assay To assess the compound potency in MLL1 Flashplate assay, compounds were serially diluted 3-fold in DMSO to obtain a total of twelve concentrations. Then the test compounds at each concentration (250 nL of each) were transferred by Mosquito into Corning #3675 384-well plate. Solutions (15 μL) of 4.2 nM wild type MLL1 five-member complex (MLL1-5C) in the assay buffer (20 mM Tris-HCl, pH8.0, 0.01% Tween 20, 1 mM DTT, 0.01% BSA) were added to the wells. A 10 μL solution of 2.5 μM of the peptide substrate H3K4me0 (histone H3[1-21]-Biotin) and 1.25 μM ^3H-SAM in the reaction buffer was then added to initiate each reaction. The final components in the reaction solution include 2.5 nM MLL1-5C, 0.5 μM ^3H-SAM, and 1 μM H3K4me0 with varying concentration of the compounds. A positive control consisted of 2.5 nM MLL1-5C, 0.5 μM ^3H-SAM, and 1 μM substrate in the absence of the test compound, and a negative control consisted of 0.5 μM ^3H-SAM, and 1 μM substrate only. Each reaction was incubated at rt for 90 min, then stopped by addition of 5 μL per of quench solution (0.5 mM SAM in assay buffer). 25 μL of each reaction solution was transferred to FlashPlate streptavidin 384-well microplate (PerkinElmer). After at least 1 h incubation at rt, the wells were washed three times with 0.1% Tween-20 in dH2O using the BioTek plate washer. The plates were then read in MicroBeta (PerkinElmer). The radioactive readouts were then normalized based on the values coming from the positive and negative controls to give percent enzyme activities. The data were then fit to a dose response equation using the program Helios to get the IC50 values of the test compounds.

Test [2] addresses wild type MLL1 four-member complex (MLL1-4C) (Homo sapiens, UniProt Q03164). As to the kind of experiment: MLL1 LC-MS assay. It is filed as biochemical. Conditions: 30 nM MLL1-4C, 2.5 μM SAM, 10 μM H3K4me0; SAH production by LC-MS/MS; read-out: MLL1 LCMS. As for the experimental part: The compounds of the present disclosure were serially and separately diluted 3-fold in DMSO to obtain a total of eight or twelve concentrations. Then the test compounds at each concentration (120 nL of each) were transferred by Mosquito into white Proxiplate plus 384-well microplate (PerkinElmer). Solutions (6 μL) of 60 nM wild type MLL1 four-member complex (MLL1-4C) and 5 μM SAM in the reaction buffer (20 mM Tris-HCl, pH8.0, 0.01% Tween 20, 1 mM DTT, 10 mM MgCl2, 0.01% BSA) were added to the wells that were then incubated with the test compound for 20 min. A 6 μL solution of 20 μM of the peptide substrate H3K4me0 (histone H3[1-21]-Biotin) in the reaction buffer was added to initiate each reaction. The final components in the reaction solution include 30 nM MLL1-4C, 2.5 μM SAM, and 10 μM H3K4me0 with varying concentration of the compounds. A positive control consisted of 30 nM MLL1-4C, 2.5 μM SAM, and 10 μM substrate in the absence of the test compound, and a negative control consisted of 2.5 μM SAM, and 10 μM substrate only. Each reaction was incubated at rt for 120 min, then stopped by addition of 3 μL per of quench solution (2.5% TFA with 320 nM d4-SAH). The reaction mixture was centrifuged (Eppendorf centrifuge 5810, Rotor A-4-62) for 2 min at 2000 rmp. The SAH production from the enzymatic assays were monitored by LC-MS/MS on an API 4000 triple quadrupole mass spec with TurboIon Spray (Applied Biosystem) coupled with Prominenece UFLC(Shimazu). The level of SAH production were then normalized based on the values coming from the positive and negative controls to give percent enzyme activities. The data were then fit to a dose response equation using the program Helios (Novartis) to get the IC50 values of the test compounds.

Another test relates to H3K4me3 in MV4-11 cells. As to the kind of experiment: MV4-11 H3K4Me3 cellular ELISA assay. Conditions: Homo sapiens, 48 hours, H3K4me3 signal normalized to total H3. In kind it is cell-based. On the procedure:
MV4-11H3K4Me3 Cellular ELISA Assay
MV4-11 (ATCC® CRL-9591™) was cultured with RPMI1640 medium (Thermo Fisher Scientific, cat #11875) supplemented with 10% FBS (Thermo Fisher Scientific, cat #10099141) and 50 U/ml Penicillin-Streptomycin (Thermo Fisher Scientific, cat #10378016) in humidified incubator at 37° C., 5% CO2.
200 nL compounds dissolved in DMSO were serially diluted at 1:3 ratio for 12 points starting from 10 mM and dispensed into each wells of cell culture plates (PDL-coated ViewPlate-384 Black, FTC, PerkinElmer, #6007710). 3,750 MV4-11 cells in 40 μL culture medium were seeded into each well and treated with desired concentration for 48 hours. After treatment, wash cells with cold phosphate based buffer (PBS, pH 7.4) and aspirate the remaining PBS buffer. Crude histone lysate was extracted by 40 μL 0.5M HCl for 1 hour in 4° C. following neutralization by adding 32 μL neutralization buffer (0.5M Sodium phosphate dibasic, pH˜12.5, 1.25 mM Dithiothreitol, Promega #V3151, Protease Inhibitor Cocktail, Sigma #8340) for each well. 5 μL and 20 μL of histone lysate was loaded to ELISA plate (384 Well Plates, PE HB, White, 6005620) for detection of total H3 and H3K4me3, respectively. Shake the plates gently in 4° C. for overnight. After histone binding, plates were washed with 80 μL PBS/T (PBS with 0.05% Tween-20) and blocked with 50 μL 3% BSA diluted in PBS/T per well for 1 hour. Incubate wells with primary antibody for 1 hour at room temperature using anti-H3K4me3 (CST #9727) and anti-total H3 (CST #9715) diluted 1:2000 in 3% BSA. Plates were then washed with PBS/T for 3 times and incubated with horseradish peroxidase (HRP) conjugated secondary antibody (CST #7074, 1:5000) for 1 hour at room temperature. The abundance of H3K4me3 and total H3 were measured by ECL substrates chemiluminesce (Pierce, #34080) on a plate reader (PerkinElmer EnVison 2104 Mutilable Reader). Percentage inhibition was calculated against DMSO control after normalization of H3K4me3 signal to H3 signal for individual samples. The data were then fit to a dose response curve using GraphPad Prism for IC50 calculation.
For orientation: ELISA stands for enzyme-linked immunosorbent assay.

Another test relates to MV4-11 cells. Description: MV4-11 6-day cell growth CTG (CellTiter-Glo) assay. It is filed as cell-based. The conditions noted are these: Homo sapiens, 144 h, 6 days. As for the experimental part: MV4-11 6-Day Cell Growth CTG (CellTiter-Glo) Assay
Acute myeloid leukemia cell MV4-11 (ATCC® CRL-9591™) was cultured with RPMI 1640 medium (Thermo Fisher Scientific, cat #11875) supplemented with 10% FBS (Thermo Fisher Scientific, cat #10099141) in humidified incubator at 37° C., 5% CO2. To assess the effect of MLL1 inhibition on cell growth, the compound of the present invention was dissolved in DMSO and serially diluted at 1:3 for 12 points starting from 10 mM then 200 nL for the replicate of each dose per well was dispensed to Viewplate-384 Black (Perkin Elmer). Exponentially growing MV4-11 cells were seeded at the density of 300 cells per well in 40 μL to the plate, so the final compound working concentration starts from 50 μM. After 6 days, 40 μL CellTiter-Glo (Promega, cat #G7573) was added into the cell culture well and luminescence was read with Envision (Perkin Elmer) to determine the viable cells. The percentage inhibition was calculated against the samples treated with DMSO only and the data were used for dose response curve fitting in GraphPad Prism to get the IC50 of representative compound of present invention, which reflects the inhibition of MLL1 activity.
For orientation: ATP-based viability assays read luminescence as a measure of living cells.

With `COC[C@H](N)CCCOc1ccc(Cl)c(Cl)c1Cn1cnc2c(N)ncnc21` [Example 1, (R)-9-(6-((4-amino-5-methoxypentyl)oxy)-2,3-dichlorobenzyl)-9H-purin-6-amine], the pIC50 in test [1] is > 7.22; in test [2], > 7.30; in the test with H3K4me3 in MV4-11 cells it was < 5.52; in the test on MV4-11 cells, 5.52 to 5.70.

Take `COC[C@H](N)COc1ccc2ccccc2c1Cn1cnc2c(N)ncnc21` [Example 19, (S)-9-((2-(2-amino-3-methoxypropoxy)naphthalen-1-yl)methyl)-9H-purin-6-amine]: the results for the pIC50 (in test [2]; in the test on H3K4me3 in MV4-11 cells; in the test with MV4-11 cells) were 7.00 to 7.30, 5.52 to 5.72 and > 5.70, respectively.

`COC[C@H](N)CCCOc1ccc2cc(Br)ccc2c1Cn1cnc2c(N)ncnc21` [Example 20, (R)-9-((2-((4-amino-5-methoxypentyl)oxy)-6-bromonaphthalen-1-yl)methyl)-9H-purin-6-amine]: the pIC50 in test [1] is > 7.22; in test [2], 7.00 to 7.30; in the test on H3K4me3 in MV4-11 cells, < 5.52; in the test with MV4-11 cells, < 5.52.

As for `Nc1ncnc2c1ncn2Cc1c(OCCC[C@@H](N)C(=O)O)ccc(Cl)c1Cl` [Example 23, (R)-2-amino-5-(2-((6-amino-9H-purin-9-yl)methyl)-3,4-dichlorophenoxy)pentanoic acid], the pIC50 in test [1] is > 7.22; in test [2], > 7.30; in the test on H3K4me3 in MV4-11 cells, > 5.72; in the test on MV4-11 cells, 5.52 to 5.70.

In the case of `CCOC(=O)[C@H](N)CCCOc1ccc(Cl)c(Cl)c1Cn1cnc2c(N)ncnc21` [Example 29, Ethyl (R)-2-amino-5-(2-((6-amino-9H-purin-9-yl)methyl)-3,4-dichlorophenoxy)pentanoate], the pIC50 is > 7.22 in test [1], > 7.30 in test [2], > 5.72 with H3K4me3 in MV4-11 cells and > 5.70 in the test with MV4-11 cells.

In the case of `CCOC(=O)[C@H](N)CCC(C)Oc1ccc(Cl)c(Cl)c1Cn1cnc2c(N)ncnc21` (stereo partly drawn) [Example 30, Ethyl (2R)-2-amino-5-(2-((6-amino-9H-purin-9-yl)methyl)-3,4-dichlorophenoxy)hexanoate], the pIC50 in test [2] was 7.00 to 7.30; in the test on H3K4me3 in MV4-11 cells, 5.52 to 5.72; in the test with MV4-11 cells, > 5.70.

In the case of `COC(=O)[C@H](N)CCCOc1ccc(Cl)c(Cl)c1Cc1cnc2c(N)ncnn12` [Example 34, Methyl (R)-2-amino-5-(2-((4-aminoimidazo[2,1-f][1,2,4]triazin-7-yl)methyl)-3,4-dichlorophenoxy)pentanoate], the pIC50 was 7.00 to 7.30 in test [2], > 5.72 in the test on H3K4me3 in MV4-11 cells and > 5.70 in the test with MV4-11 cells.

For the compound `NC(=O)[C@H](N)CCCOc1ccc(Cl)c(Cl)c1Cn1cnc2c(N)ncnc21` [Example 39, (R)-2-amino-5-(2-((6-amino-9H-purin-9-yl)methyl)-3,4-dichlorophenoxy)pentanamide], the pIC50 in test [2] is 7.00 to 7.30; with MV4-11 cells it was > 5.70.

Regarding `COCCNC(=O)[C@H](N)CCCOc1ccc(Cl)c(Cl)c1Cn1cnc2c(N)ncnc21` [Example 41, (R)-2-amino-5-(2-((6-amino-9H-purin-9-yl)methyl)-3,4-dichlorophenoxy)-N-(2-methoxyethyl) pentanamide], the pIC50 in test [2] is 7.00 to 7.30; with H3K4me3 in MV4-11 cells, > 5.72; in the test on MV4-11 cells, > 5.70.

For `Nc1ncnc2c1ncn2Cc1c(OCCC[C@@H](N)CO)ccc(Cl)c1Cl` [Example 45, (R)-2-amino-5-(2-((6-amino-9H-purin-9-yl)methyl)-3,4-dichlorophenoxy)pentan-1-ol], the pIC50 was 7.00 to 7.22 in test [1], 7.00 to 7.30 in test [2] and 5.52 to 5.70 in the test on MV4-11 cells.

As for `COCCOC[C@H](N)CCCOc1ccc(Cl)c(Cl)c1Cn1cnc2c(N)ncnc21` [Example 47, (R)-9-(6-((4-amino-5-(2-methoxyethoxy)pentyl)oxy)-2,3-dichlorobenzyl)-9H-purin-6-amine], the pIC50 is < 7.00 in test [1], < 7.00 in test [2] and < 5.52 in the test with MV4-11 cells.

For the compound `Nc1ncnc2c1ncn2Cc1c(OCCC[C@@H](N)Cn2cccn2)ccc(Cl)c1Cl` [Example 49, (R)-9-(6-((4-amino-5-(1H-pyrazol-1-yl)pentyl)oxy)-2,3-dichlorobenzyl)-9H-purin-6-amine], the pIC50 in test [2] was 7.00 to 7.30; in the test with MV4-11 cells, < 5.52.

As for `Nc1ncnc2c1ncn2Cc1c(OCCC[C@@H](N)c2nnco2)ccc(Cl)c1Cl` [Example 51, (R)-9-(6-(4-amino-4-(1,3,4-oxadiazol-2-yl)butoxy)-2,3-dichlorobenzyl)-9H-purin-6-amine], the pIC50 in test [1] was 7.00 to 7.22; in test [2], < 7.00; in the test with MV4-11 cells, < 5.52.

`CSC[C@H](N)CCCOc1ccc(Cl)c(Cl)c1Cn1cnc2c(N)ncnc21` [Example 52, (R)-9-(6-((4-amino-5-(methylthio)pentyl)oxy)-2,3-dichlorobenzyl)-9H-purin-6-amine]: the pIC50 is < 7.00 in test [1], 7.00 to 7.30 in test [2] and < 5.52 in the test on MV4-11 cells.
